# Source: patent US20260022142A1, “MACROCYCLIC IMMUNOMODULATORS” (Bristol-Myers Squibb Company, priority 2022, published 2026)
# pIC50: −log10 of the molar value. Bridge positions count the residues as written; N and C are the ends. Square brackets hold non-standard residues; d marks the D form. Peptide text beside a SMILES is read from it. * marks the point of attachment. ξ: configuration not given here. Bip = N[C@@H](Cc1ccc(-c2ccccc2)cc1)C(=O)O; Phe(3-Me) = Cc1cccc(C[C@H](N)C(=O)O)c1; Aad = N[C@@H](CCCC(=O)O)C(=O)O; Cha = N[C@@H](CC1CCCCC1)C(=O)O; Cit = NC(=O)NCCC[C@H](N)C(=O)O; Thr(3ξ) = CC(O)[C@H](N)C(=O)O; Carboxymethyl = O=C(O)C*; Orn = NCCC[C@H](N)C(=O)O; Aun = NCCCCCCCCCCC(=O)O; Dab = NCC[C@H](N)C(=O)O; Dap = NC[C@H](N)C(=O)O; AEEA = NCCOCCOCC(=O)O
# Biological target: T1, PD-1/PD-L1 interaction (PE-labeled human PD-L1-Ig binding to Jurkat cell line over-expressing human PD-1) (Homo sapiens, UniProt Q15116)
# T1 construct: expressed in transfected cells; host or cells: Jurkat
# Assay: Jurkat-PD-1 Cell Binding High-Content Screening Assay (CBA)
# Type: cell-based
# Conditions: Jurkat cell line over-expressing human PD-1; PE-labeled PD-L1-Ig 20 nM final; read-out: Jurkat hPD1-PDL1 IC50
# Summary of the method: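 Binding of fluorescent PD-L1-Ig (20 nM final) to Jurkat-PD-1 cells was measured by automated imaging after 1 h, following a 2 h compound pre-treatment at 37° C.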
# T1 sequence (Q15116 25-288): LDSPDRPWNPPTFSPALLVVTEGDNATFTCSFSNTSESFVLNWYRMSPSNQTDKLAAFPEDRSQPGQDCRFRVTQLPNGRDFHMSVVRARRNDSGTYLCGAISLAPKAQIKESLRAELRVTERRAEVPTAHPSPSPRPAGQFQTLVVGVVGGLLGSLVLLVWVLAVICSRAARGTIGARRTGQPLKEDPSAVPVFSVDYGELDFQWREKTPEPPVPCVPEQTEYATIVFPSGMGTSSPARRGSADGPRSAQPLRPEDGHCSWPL
row,SMILES,pIC50
1,Cc1cccc(C[C@@H]2NC(=O)[C@H](CC(=O)O)NC(=O)[C@H](Cc3ccc(OCC(=O)O)cc3)NC(=O)[C@H](CN)NC(=O)CSC[C@@H](C(=O)N[C@@H](C)C(=O)N[C@@H](CN)C(=O)NCC(=O)NCCCCCCCCCCC(=O)O)NC(=O)[C@H]([C@@H](C)O)NC(=O)[C@H](C(C)C)NC(=O)[C@H](CC3CCCCC3)NC(=O)[C@H](CCN)NC(=O)[C@@H](CC(C)C)NC(=O)[C@H](CCCN)NC(=O)[C@H](CCCNC(N)=O)NC(=O)[C@H](Cc3ccc(-c4ccccc4)cc3)NC(=O)[C@H](C(C)C)NC2=O)c1 [Compound 1053] ({CH2CO}-[Dap]Y(Carboxymethyl)D[Phe(3-Me)]V[Bip][Cit][Orn][dL][Dab][Cha]VTCA[Dap]G[Aun]-OH; thioether N-14),8.05
2,Cc1cccc(C[C@@H]2NC(=O)[C@H](CC(=O)O)NC(=O)[C@H](Cc3ccc(OCC(=O)O)cc3)NC(=O)[C@H](CN)NC(=O)CN[C@@H](C(=O)N[C@@H](CCN)C(=O)NCCCCCCCCCCC(=O)O)CNC(=O)[C@H]([C@@H](C)O)NC(=O)[C@H](C(C)C)NC(=O)[C@H](CC3CCCCC3)NC(=O)[C@H](CCN)NC(=O)[C@@H](CC(C)C)NC(=O)[C@H](CCCN)NC(=O)[C@H](CCCNC(N)=O)NC(=O)[C@H](Cc3ccc(-c4ccccc4)cc3)NC(=O)[C@H](C(C)C)NC2=O)c1 [Compound 2158],6.89
3,Cc1cccc(C[C@@H]2NC(=O)[C@H](CC(=O)O)NC(=O)[C@H](Cc3ccc(OCC(=O)O)cc3)NC(=O)[C@H](CN)NC(=O)CSC[C@@H](C(=O)NCCOCCOCC(=O)N[C@@H](CCCCN)C(=O)NCCCCCCCCCCC(=O)O)NC(=O)[C@H](CN)NC(=O)[C@H](C(C)C)NC(=O)[C@H](CC3CCCCC3)NC(=O)[C@H](CCN)NC(=O)[C@@H](CC(C)C)NC(=O)[C@H](CCCN)NC(=O)[C@H](C(C)C)NC(=O)[C@H](Cc3ccc(-c4ccccc4)cc3)NC(=O)[C@H](C(C)C)NC2=O)c1 [Compound 2596] ({CH2CO}-[Dap]Y(Carboxymethyl)D[Phe(3-Me)]V[Bip]V[Orn][dL][Dab][Cha]V[Dap]C[AEEA]K[Aun]-OH; thioether N-14),8.02

# Further lines, results first:
row,pIC50,SMILES
1,7.90,Cc1cccc(C[C@@H]2NC(=O)[C@H](CC(=O)O)NC(=O)[C@H](Cc3ccc(OCC(=O)O)cc3)NC(=O)[C@H](CN)NC(=O)CSC[C@@H](C(=O)N[C@@H](CCN)C(=O)NCCCCCCCCCCC(=O)O)NC(=O)[C@H](CCCC(N)=O)NC(=O)[C@H](C(C)C)NC(=O)[C@H](CC3CCCCC3)NC(=O)[C@H](CCN)NC(=O)[C@@H](CC(C)C)NC(=O)[C@H](CCCN)NC(=O)[C@H](Cc3ccc(O)cc3)NC(=O)[C@H](Cc3ccc(-c4ccccc4)cc3)NC(=O)[C@H](C(C)C)NC2=O)c1 [Compound 2751] ({CH2CO}-[Dap]Y(Carboxymethyl)D[Phe(3-Me)]V[Bip]Y[Orn][dL][Dab][Cha]V[Aad](NH2)C[Dab][Aun]-OH; thioether N-14)
2,7.71,CC(C)C[C@H]1NC(=O)[C@H](CCCN)NC(=O)[C@H](C(C)C)NC(=O)[C@H](Cc2ccc(-c3ccccc3)cc2)NC(=O)[C@H](C(C)C)NC(=O)[C@H](Cc2c[nH]c3ccccc23)NC(=O)[C@H](CC(=O)O)NC(=O)[C@H](Cc2ccc(OCC(=O)O)cc2)NC(=O)[C@H](C(C)O)NC(=O)CSC[C@@H](C(=O)N[C@@H](CCN)C(=O)NCCCCCCCCCCC(=O)O)NC(=O)[C@H](CCCN)NC(=O)[C@H](C(C)O)NC(=O)[C@H](CC2CCCCC2)NC(=O)[C@H](CCN)NC1=O (stereo partly drawn) [Compound 3675] ({CH2CO}-[Thr(3ξ)]Y(Carboxymethyl)DWV[Bip]V[Orn][dL][Dab][Cha][Thr(3ξ)][Orn]C[Dab][Aun]-OH; thioether N-14)
